Results taken from patent publication US7643943B2, “Methods for monitoring drug activities in vivo” (Wyeth LLC, priority 2003, dated 2010).

Tests used:
clinical [1] = conditions: human, in vivo
Procedure: (§1) In a randomized, double-blind, multicenter trial, once-weekly intravenous doses of 25-, 75-, or 250-mg of CCI-779 were administered to patients with advanced renal cancer that were either previously treated, or untreated and not appropriate candidates for high dose interlukin-2 therapy. Whole blood for CCI-779 and metabolite concentrations was drawn for population pharmacokinetic analysis, and Bayesian-predicted area under the concentration-time curves for parent drug (AUC), parent plus metabolite (AUCsum), and cumulative AUC and AUCsum were derived.
(§2) For CCI-779 clearance, factors for dose, attenuation of exposure with multiple-dose, and effect of body surface area were included.
(§3) The following examples were based on a randomized, double-blind, multicenter, outpatient phase 2 study of CCI-779 administered by 30 minute intravenous infusion (via an automatic dispensing pump) in patients with advanced RCC. Eligible patients were randomly assigned to treatment in a 1:1:1 ratio to receive 25 mg, 75 mg, or 250 mg of CCI-779 weekly until evidence of disease progression.
(§4) Full pharmacokinetic profiling was planned in a subset of patients, with remaining patients to provide sparse sampling.
(§5) The bioanalytical method for CCI-779 was performed using whole blood in a liquid chromatography/tandem mass spectrometry (LC/MS/MS) procedure with deuterated internal standard.
(§6) In order to characterize the pharmacokinetic profiles of patients providing sparse blood sampling, fully and sparsely sampled patient data were analyzed collectively using a population pharmacokinetic method and the NONMEM application (version 1.0, Revision 5.0 on Windows NT 4.0 computer with Pentium processor, NONMEM Project Group, University of California at San Francisco, Calif.). […] Data were therefore modeled separately and segregated by analyte into two separate data sets with dose, time/duration of administration, and demographic information. […] Construction of the NONMEM infile was performed using SAS (version 8.1) on a Sun Microsystems mainframe computer with Sun OS 5.8. […] In both cases, the model-derived value for AUC for a given patient and analyte were obtained from the quotient of CCI-779 Dose/Clearance (CL), in which CL was obtained from Bayesian estimation and the POSTHOC option of NONMEM.
(§7) During model building, an exponential error model was applied to the kinetic model.

[2] = human, in vivo
Procedure: as §1, §2, §3, §4, §5, §6, §7

clinical [3] = conditions: human, in vivo, iv
Text: The pharmacokinetics of CCI-779 is being studied in patients with cancer receiving CCI-779 either alone or in combination with other chemotherapeutic agents following intravenous administration. Intravenous dosage schedules previously investigated include a cyclical schedule (daily for 5 days every two weeks) and a once-weekly regimen. […] The following examples evaluated the safety, efficacy, and pharmacokinetic/pharmacodynamic relationship to clinical response of three doses of CCI-779, when administered to patients with advanced, refractory renal cell cancer (RCC).
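Throughout, for CL: population pharmacokinetic analysis in NONMEM of pooled full and sparse blood sampling from patients, exponential error on kinetic parameters, proportional residual error, bootstrap check over 1,000 resamples.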
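Throughout, for DE on CL (θ6), parameter estimate: population pharmacokinetic analysis in NONMEM of pooled full and sparse blood sampling from patients, exponential error on kinetic parameters, proportional residual error, bootstrap check over 1,000 resamples.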
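Throughout, for DE on V3 (θ7), parameter estimate: population pharmacokinetic analysis in NONMEM of pooled full and sparse blood sampling from patients, exponential error on kinetic parameters, proportional residual error, bootstrap check over 1,000 resamples.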
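Throughout, for Dose effect on CL (θ7), bootstrap sample median: population pharmacokinetic analysis in NONMEM of pooled full and sparse blood sampling from patients, exponential error on kinetic parameters, proportional residual error, bootstrap check over 1,000 resamples.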

CO[C@H]1C[C@@H]2CC[C@@H](C)[C@@](O)(O2)C(=O)C(=O)N2CCCC[C@H]2C(=O)O[C@H]([C@H](C)C[C@@H]2CC[C@@H](O)[C@H](OC)C2)CC(=O)[C@H](C)/C=C(\C)[C@@H](O)[C@@H](OC)C(=O)[C@H](C)C[C@H](C)/C=C/C=C/C=C/1C [sirolimus]
clearance (clinical [1]): 33.2 mL/min
DE on CL (θ6), parameter estimate [2]: 0.422
DE on V3 (θ7), parameter estimate [2]: 0.302
Dose effect on CL (θ7), bootstrap sample median [2]: 0.412
Dose effect on V3 (θ8), bootstrap sample median [2]: 0.231
HCT effect on V3 (θ8), parameter estimate [2]: 0.719
Hematocrit effect on V3 (θ9), bootstrap sample median [2]: 0.768
Inter-Patient Variability % on CL [2]: 63.7%
Inter-Patient Variability % on Ka [2]: 34.6%
Inter-Patient Variability % on V2 [2]: 164%
Inter-Patient Variability % on V3 [2]: 22.8%
Intersubject variability on CL (ω^21), bootstrap sample median [2]: 0.545
Intersubject variability on CL (ω^21), final model parameter estimate [2]: 0.406
Intersubject variability on V2 (ω^22), bootstrap sample median [2]: 1.418
Intersubject variability on V2 (ω^22), final model parameter estimate [2]: 2.72
Intersubject variability on V3 (ω^23), final model parameter estimate [2]: 0.052
Intersubject variability on ka (ω^24), bootstrap sample median [2]: 0.316
Intersubject variability on ka (ω^24), final model parameter estimate [2]: 0.120
Ka (θ5), parameter estimate [2]: 0.087 h⁻¹
Proportional error (ε^2), bootstrap sample median [2]: 0.212
Proportional error (ε^2), final model parameter estimate [2]: 0.0543
Q (θ3), bootstrap sample median [2]: 27.5 L/h
V2 (θ2), bootstrap sample median [2]: 8.24 L
V3 (θ4), bootstrap sample median [2]: 11.6 L
V3 (θ4), parameter estimate [2]: 12.9 L
ka (θ5), bootstrap sample median [2]: 0.0616 h⁻¹
Q (θ3), parameter estimate ([2]; iv): 44.1 L/h
V2 (θ2), parameter estimate ([2]; iv): 10.4 L
CL (θ1), parameter estimate ([2]; iv, 250 mg): 2.05 L/h
half-life (clinical [3]): 2.5 to 2.92 days
